From patent US11413321B2, “Pharmaceutical composition for use in increasing hair, modifying scalp or skin, healing a wound, promoting osteogenesis, or modifying hair” (priority 2017, dated 2022)

Tested on: Cxcl12
Assay: Quantitative PCR of dorsal tissues after subcutaneous administration (Cxcl12)
Format: in vivo, Wistar rat
Conditions: 20 μL per location into rat dorsal part; vs control without administration; FIG. 15
Experimental: 2.) C—X—C motif chemokine ligand 12 (Cxcl12), transcript variant 1, Rattus norvegicus: mRNA 1,880 bp NM 022177.3 GI: 7649650 Next, a change in gene expression in tissues was examined. Three regions were set between the head and the tail of the dorsal part of a 12-week-old Wistar rat (male), and each region was divided between the left and the right of the backbone into two regions to set a total of six regions on the dorsal part. Milk or palmitic acid was injected in an amount of 20 μL per location at two locations in the vicinity of the center of each region. The distance between the two locations was 1 cm. The collected tissue fragments were frozen with liquid nitrogen, and stored at −80° C. […] Analysis of gene expression by quantitative PCR was performed in the following manner: Integrated DNA technologies, Inc (Skokie, Ill., USA) was requested to design and synthesize gene-specific primers and probes, and using PrimeTime Gene Expression Master Mix Reagent (Integrated DNA Technologies, Inc, Skokie, Ill., USA) and Rotor-Gene Q PCR Apparatus (QIAGEN GmbH, Hilden, Germany), PCR analysis was performed twice per gene per specimen to analyze the expression level of a target gene. […]

Compound: CCCCCCCCCCCCCCCC(=O)O [palmitic acid]
- expression level of Cxcl12 in tissues: greatly increased
